Data reported in article PMC11651181, “Discovery of 6α-Thiazolylcarboxamidonaltrexamine Derivative (NTZ) as a Potent and Central Nervous System Penetrant Opioid Receptor Modulator with Drug-like Properties for Potential Treatment of Opioid Use Disorder” (ACS Pharmacology & Translational Science, 2024).
Entries after “also recorded” stand apart in the source; their conditions may differ. Where a name gives a salt, the structure may show the parent alone.

Legend:
μ opioid receptor (MOR) = target: T1, μ opioid receptor (MOR) (Mus musculus, UniProt P42866); experiment: Competitive radioligand binding assay, MOR
T1 construct: expressed in transfected cells; host or cells: CHO (mMOR-CHO), membrane preparation
Description: (§1) The competition binding assay was performed using monoclonal mouse opioid receptors expressed in CHO cell lines (monoclonal human δ opioid receptor was used for the DOR assay).
(§2) The bound radioligand was separated using a Brandel harvester. Specific binding to the MOR, KOR, and DOR was calculated by subtracting the binding observed in the presence of 5 μM naltrexone, U50488, and SNC80, respectively, from the binding in their absence. Relative affinity values (IC50) were determined by fitting displacement binding inhibition data to a nonlinear regression model using GraphPad Prism 8.0 (GraphPad Software, San Diego, CA). The % inhibition was calculated using the formula: % inhibition = 100% - [(binding with the tested compound - nonspecific binding)/specific binding] × 100%. The IC50 values were converted to Ki values using the Cheng-Prusoff equation: Ki = IC50/ [1 + ([L*]/KD)], where [L*] is the concentration of the radioligand and KD is the KD of the radioligand.[68]

δ opioid receptor (DOR) = target: T2, δ opioid receptor (DOR) (Homo sapiens, UniProt P41143); experiment: Competitive radioligand binding assay, DOR; conditions: for Selectivity δ/μ: ratio of Ki values
T2 construct: expressed in transfected cells; host or cells: CHO (hDOR-CHO), membrane preparation
Description: as §1, §2

κ opioid receptor (KOR) = target: T3, κ opioid receptor (KOR) (Mus musculus, UniProt P33534); experiment: Competitive radioligand binding assay, KOR; conditions: for Selectivity κ/μ: ratio of Ki values
T3 construct: expressed in transfected cells; host or cells: CHO (mKOR-CHO), membrane preparation
Description: as §1, §2

MOR [1] = target: T4, MOR (Mus musculus, UniProt P42866); experiment: MOR [35S]GTPγS functional assay; format: biochemical; conditions: for Emax: read-out: MOR [35S]GTPγS Binding %Emax of DAMGO, relative to 3 μM DAMGO, mean ± SEM
T4 construct: expressed in transfected cells; host or cells: CHO (MOR-CHO), membrane preparation
Description: (§3) The [^35S]GTPγS functional assay was used to assess the efficacy of compounds at the MOR, KOR, and DOR. In this assay, 10 μg of MOR-CHO/KOR-CHO/DOR-CHO membrane protein was incubated in 500 μL of TME with 100 mM NaCl, 20 μM GDP, 0.1 nM [^35S]GTPγS, and varying concentrations of the compound for 1.5 h in a 30 °C water bath. Protein concentration was adjusted using the Bradford protein assay. […] After incubation, bound radioactivity was separated by filtration through GF/B glass fiber filters and measured by liquid scintillation counting. All assays were performed in duplicate and repeated at least three times. Net stimulated [35S]GTPγS binding was calculated as agonist-stimulated minus basal binding.

Swiss Webster mice = experiment: Warm-water tail immersion assay, antagonism of morphine-induced antinociception; conditions: for Antagonism of morphine's antinociception, in words: single dose of 10 mg/kg s.c. in the presence of morphine (10 mg/kg), n = 6; for AD50 (95% CL) for counteracting morphine-induced antinociception: mice, s.c., given 5 min before morphine
KOR = target: T5, KOR (Mus musculus, UniProt P33534); experiment: KOR [35S]GTPγS functional assay; format: biochemical
T5 construct: expressed in transfected cells; host or cells: CHO (KOR-CHO), membrane preparation
Description: as §3

DOR = target: T6, DOR (Homo sapiens, UniProt P41143); experiment: DOR [35S]GTPγS functional assay; format: biochemical
T6 construct: expressed in transfected cells; host or cells: CHO (DOR-CHO), membrane preparation
Description: as §3

MOR [2] = target: T4, MOR; experiment: MOR calcium flux assay in Gαqi5-transfected mMOR-CHO cells; format: cell-based

| SMILES | Ki (μ opioid receptor (MOR)) [nM] | Ki (δ opioid receptor (DOR)) [nM] | Selectivity δ/μ (δ opioid receptor (DOR)) | Ki (κ opioid receptor (KOR)) [nM] | Selectivity κ/μ (κ opioid receptor (KOR)) | EC50 (MOR [1]) [nM] | Emax (MOR [1]) [%] | Antagonism of morphine's antinociception, in words (Swiss Webster mice) | EC50 (KOR) [nM] | Emax (KOR; relative to 3 μM U50488H, mean ± SEM, read-out: KOR [35S]GTPγS binding % Emax of U50488H) [%] | EC50 (DOR) [nM] | Emax (DOR; relative to 3 μM SNC80, mean ± SEM, read-out: DOR [35S]GTPγS binding % Emax of SNC80) [%] | IC50 (MOR [2]) [nM] | Agonistic activity in increasing intracellular calcium, in words (MOR [2]; compared to full MOR agonist DAMGO) | AD50 (95% CL) for counteracting morphine-induced antinociception (Swiss Webster mice) |
| --- | --- | --- | --- | --- | --- | --- | --- | --- | --- | --- | --- | --- | --- | --- | --- |
| O=C(Cc1ccns1)N[C@H]1CC[C@@]2(O)[C@H]3Cc4ccc(O)c5c4[C@@]2(CCN3CC2CC2)[C@H]1O5 [Compound 2, 17-Cyclopropylmethyl-3,14β-dihydroxy-4,5α-epoxy-6α-(5′-isothiazolylacetamido)-morphinan hydrochloride] | 0.55 ± 0.06 | 13.9 ± 1.62 | 25 | 1.49 ± 0.13 | 3 | 4.62 ± 0.44 | 18.2 ± 1.06 |  |  |  |  |  |  |  |  |
| O=C(N[C@H]1CC[C@@]2(O)[C@H]3Cc4ccc(O)c5c4[C@@]2(CCN3CC2CC2)[C@H]1O5)c1cncs1 [Compound 3, 17-Cyclopropylmethyl-3,14β-dihydroxy-4,5α-epoxy-6α-(5′-thiazolylcarboxamido)-morphinan hydrochloride] | 0.35 ± 0.02 | 16.8 ± 3.88 | 48 | 0.97 ± 0.11 | 3 | 2.77 ± 0.51 | 15.9 ± 1.84 |  |  |  |  |  |  |  |  |
| O=C(Cc1cncs1)N[C@H]1CC[C@@]2(O)[C@H]3Cc4ccc(O)c5c4[C@@]2(CCN3CC2CC2)[C@H]1O5 [Compound 4, 17-Cyclopropylmethyl-3,14β-dihydroxy-4,5α-epoxy-6α-(5′-thiazolylacetamido)-morphinan hydrochloride] | 0.57 ± 0.02 | 8.5 ± 0.56 | 15 | 2.08 ± 0.39 | 4 | 5.87 ± 1.26 | 17 ± 0.89 |  |  |  |  |  |  |  |  |
| O=C(CCc1cncs1)N[C@H]1CC[C@@]2(O)[C@H]3Cc4ccc(O)c5c4[C@@]2(CCN3CC2CC2)[C@H]1O5 [Compound 5, 17-Cyclopropylmethyl-3,14β-dihydroxy-4,5α-epoxy-6α-[(3′-(thiazolyl-5′′-yl)propan-amido]morphinan hydrochloride] | 0.71 ± 0.08 | 11.6 ± 1.24 | 16 | 2.04 ± 0.38 | 3 | 2.76 ± 0.58 | 10.7 ± 1.02 |  |  |  |  |  |  |  |  |
| O=C(Cc1nccs1)N[C@H]1CC[C@@]2(O)[C@H]3Cc4ccc(O)c5c4[C@@]2(CCN3CC2CC2)[C@H]1O5 [Compound 7, 17-Cyclopropylmethyl-3,14β-dihydroxy-4,5α-epoxy-6α-(2′-thiazolylacetamido)-morphinan hydrochloride] | 0.65 ± 0.05 | 1.3 ± 0.08 | 2 | 2.26 ± 0.5 | 3 | 3.87 ± 1.29 | 10.2 ± 0.61 | significantly antagonized |  |  |  |  |  |  |  |
| O=C(CCc1nccs1)N[C@H]1CC[C@@]2(O)[C@H]3Cc4ccc(O)c5c4[C@@]2(CCN3CC2CC2)[C@H]1O5 [Compound 8, 17-Cyclopropylmethyl-3,14β-dihydroxy-4,5α-epoxy-6α-[(3′-(thiazolyl-2′′-yl)propan-amido]morphinan hydrochloride] | 0.45 ± 0.06 | 1.18 ± 0.06 | 3 | 2 ± 0.42 | 4 | 3.4 ± 0.6 | 13.4 ± 0.41 | significantly antagonized |  |  |  |  |  |  |  |
| O=C(N[C@@H]1CC[C@@]2(O)[C@H]3Cc4ccc(O)c5c4[C@@]2(CCN3CC2CC2)[C@H]1O5)c1ccns1 [Compound 9, 17-Cyclopropylmethyl-3,14β-dihydroxy-4,5α-epoxy-6β-(5′-isothiazolylcarboxamido)-morphinan hydrochloride] | 0.32 ± 0.03 | 67.8 ± 7.17 |  | 1.22 ± 0.32 | 4 | 0.71 ± 0.14 | 9.66 ± 1.37 | significantly antagonized | 7.06 ± 0.18 | 49.9 ± 1.99 | 58.1 ± 10.3 | 44.4 ± 4.15 | 6.53 ± 2.28 | no apparent agonism; also recorded: none of them showed any significant agonistic activity | 4.77 (3.59–6.34) mg/kg |
| O=C(Cc1ccns1)N[C@@H]1CC[C@@]2(O)[C@H]3Cc4ccc(O)c5c4[C@@]2(CCN3CC2CC2)[C@H]1O5 [Compound 10, 17-Cyclopropylmethyl-3,14β-dihydroxy-4,5α-epoxy-6β-(5′-isothiazolylacetamido)-morphinan hydrochloride] | 0.59 ± 0.09 | 34 ± 4.18 | 58 | 1.14 ± 0.05 | 2 | 1.16 ± 0.15 | 9.32 ± 0.67 | significantly antagonized |  |  |  |  |  |  | 13.12 (2.34–73.39) mg/kg |
| O=C(N[C@@H]1CC[C@@]2(O)[C@H]3Cc4ccc(O)c5c4[C@@]2(CCN3CC2CC2)[C@H]1O5)c1cncs1 [Compound 11, 17-Cyclopropylmethyl-3,14β-dihydroxy-4,5α-epoxy-6β-(5′-thiazolylcarboxamido)-morphinan hydrochloride] | 0.53 ± 0.04 | 77.9 ± 16.1 | 147 | 1.41 ± 0.24 | 3 | 1.58 ± 0.44 | 13.7 ± 1.32 | significantly antagonized |  |  |  |  |  |  |  |
| O=C(Cc1cncs1)N[C@@H]1CC[C@@]2(O)[C@H]3Cc4ccc(O)c5c4[C@@]2(CCN3CC2CC2)[C@H]1O5 [Compound 12, 17-Cyclopropylmethyl-3,14β-dihydroxy-4,5α-epoxy-6β-(5′-thiazolylacetamido)-morphinan hydrochloride] | 0.39 ± 0.04 | 17.5 ± 1.91 | 44 | 0.89 ± 0.05 | 2 | 1.24 ± 0.25 | 13 ± 0.76 |  |  |  |  |  |  |  |  |
| O=C(CCc1cncs1)N[C@@H]1CC[C@@]2(O)[C@H]3Cc4ccc(O)c5c4[C@@]2(CCN3CC2CC2)[C@H]1O5 [Compound 13, 17-Cyclopropylmethyl-3,14β-dihydroxy-4,5α-epoxy-6β-[(3′-(thiazolyl-5′′-yl)propan-amido]morphinan hydrochloride] | 0.49 ± 0.07 | 31.5 ± 2.78 | 65 | 1.2 ± 0.25 | 2 | 1.39 ± 0.36 | 10.5 ± 0.92 |  |  |  |  |  |  |  |  |
| O=C(Cc1nccs1)N[C@@H]1CC[C@@]2(O)[C@H]3Cc4ccc(O)c5c4[C@@]2(CCN3CC2CC2)[C@H]1O5 [Compound 15, 17-Cyclopropylmethyl-3,14β-dihydroxy-4,5α-epoxy-6β-(2′-thiazolylacetamido)-morphinan hydrochloride] | 0.35 ± 0.04 | 26.4 ± 2.65 | 76 | 1.89 ± 0.77 | 5 | 0.78 ± 0.18 | 11 ± 0.43 |  |  |  |  |  |  |  |  |
| O=C(CCc1nccs1)N[C@@H]1CC[C@@]2(O)[C@H]3Cc4ccc(O)c5c4[C@@]2(CCN3CC2CC2)[C@H]1O5 [Compound 16, 17-Cyclopropylmethyl-3,14β-dihydroxy-4,5α-epoxy-6β-[(3′-(thiazolyl-2′′-yl)propan-amido]morphinan hydrochloride] | 0.35 ± 0.03 | 18.8 ± 3.26 | 54 | 0.67 ± 0.08 | 2 | 1.75 ± 0.46 | 12.1 ± 0.67 |  |  |  |  |  |  |  |  |
